The test system of experiment [1] is colon carcinoma (Colo 205). The experiment in a line: Methylene blue growth inhibition assay (Assay 2), Colo205. As to conditions: Homo sapiens, COLO 205, 72 h; Colorectal cancer; B-Raf V599E, Ras wt; Assay 2, 3 days. It counts as cell-based. How it is done:
(§1) Methylene Blue Growth Inhibition Assay (Assay 2)
(§2) Normal human foreskin fibroblasts (HFF), human melanoma (A375P, SKMEL2, SKMEL3) colon carcinoma (Colo 205) were cultured in the following growth media: A375P, Colo 205, Roswell Park Memorial Institute (RPMI) 1640 (Life Technologies 22400-089) containing 10% fetal bovine serum (FBS); HFF, Dulbecco's modified Eagle Medium (DMEM) (Life Technologies 12320-032) containing 10% FBS; SKMEL2 and SKMEL3, Minimum Essential Medium (MEM, Life Technologies 11095-080) containing 1× non-essential amino acids (Life Technologies 11140-050) and 10% FBS. Cells were harvested using 0.25% trypsin/1 mM, EDTA, counted using a haemocytometer, and plated in […] of the appropriate media, at the following densities, in a 96-well tissue culture plate (Falcon 3075): […] and A375P, 5,000 cells/well; all other cell lines, 10,000 cells/well. The next day, compounds were diluted in RPMI containing 100 micrograms/ml gentamicin, at twice the final required concentration, from 10 mM stock solutions in dimethyl sulphoxide (DMSO). One hundred microliters per well of these dilutions were added to the 100 microliters of media currently on the cell plates. RPMI containing 0.6% DMSO was added to control wells. […] Optical density at 620 nm was measured on a microplate reader. Percent inhibition of cell growth was calculated relative to vehicle treated control wells. […]

Experiment [2] concerns human melanoma SKMEL3. The experiment in a line: Methylene blue growth inhibition assay (Assay 2), SKMEL3. The experiment is classed as cell-based. Conditions: SK-MEL3, 72 h, B-Raf V599E, Ras wt, Assay 2, 3 days. How it is done: as §1, §2
The test system of experiment [3] is human melanoma SKMEL2. Briefly: Methylene blue growth inhibition assay (Assay 2), SKMEL2. It counts as cell-based. As to conditions: SK-MEL-2, 72 h, B-Raf wt, [Q61R]N-Ras, Assay 2, 3 days. How it is done:
as §1, §2

In experiment [4] the target is B-Raf (Homo sapiens, UniProt P15056). Briefly: Fluorescence anisotropy kinase binding assay (Assay 1). From the text:
Fluorescence Anisotropy Kinase Binding Assay
The concentration of kinase enzyme should preferably be ≧1×Kf. The concentration of fluorescent ligand required will depend on the instrumentation used, and the fluorescent and physicochemical properties. The concentration used must be lower than the concentration of kinase enzyme, and preferably less than half the kinase enzyme concentration. A typical protocol is:
All compounds are serially diluted in DMSO, then by a one step dilution into buffer of comparison, 50 mM HEPES, […] pH7.5, 1 mM CHAPS, 10 mM MgCL2, for the assay.
B-Raf Enzyme concentration: 1 nM
Fluorescent ligand concentration: 0.5 nM
Test compound concentration: 0.5 nM-100 uM
Components incubated in 10 ul final volume in LJL HE 384 type B black microtitre plate until equilibrium reached (Over 3 h, up to 30 h)
Fluorescence anisotropy read in an LJL Acquest fluorescence reader.
• Ki=dissociation constant for inhibitor binding • Kf=dissociation constant for fluorescent ligand binding
The fluorescent ligand is the following compound:
which is derived from 5-[2-(4-aminomethylphenyl)-5-pyridin-4-yl-1H-imidazol-4-yl]-2-chlorophenol and rhodamine green.

Experiment [5] deals with human colon carcinoma (Colo 201) cells. Briefly: XTT 72 hr growth inhibition (Assay 3), Colo201. It counts as cell-based. As to conditions: Colorectal cancer, B-Raf ND, Ras ND, Assay 3, 72 hr. How it is done:
XTT 72 hr Growth Inhibition Protocol for Mammalian Cultured Cells (Assay 3)
Human diploid foreskin fibroblasts (HFF) or human colon carcinoma (Colo 201) cells were grown in Dulbecco's modified Eagle's medium (DMEM) (Invitrogen/Life Technologies) containing 10% fetal bovine serum (FBS) and the antibiotics penicillin (100 Units/ml) and streotomycin (100 micrograms/ml) (Invitrogen/Life Technologies). Growth was at 37° C. in humidified 5% CO2 incubators in 75 cm^2 plastic flasks. Cells were harvested using 0.25% trypsin/1 mM ethylenediaminetetraacetic acid (EDTA), resuspended in growth medium, and counted using a hemocytometer. Flat-bottomed 96-well plates were seeded with 2×10^3 cells/well in a volume of 200 ul from trypsinized exponentially growing cultures. To “blank” wells, growth medium was added with no additions. Cells were incubated overnight to permit attachment.
Next day, medium from wells that contained cells was replaced with 180 microliters of fresh medium. Appropriate dilutions of test compounds were added to the wells from stock soloutions of compound dissolved in dimethyl sulfoxide (DMSO); final DMSO concentration in all wells was 0.2%. […] Absorbance at 450 nm was then determined using a 96-well UV plate reader (Molecular Devices). Under these conditions, absorbance of untreated control cells at 450 nm was at least 1.0 optical density unit/ml. […]

Experiment [6] deals with human melanoma A375P. The experiment in a line: Methylene blue growth inhibition assay (Assay 2), A375P. It counts as cell-based. Conditions: 72 h, B-Raf V599E, Ras wt, Assay 2, 3 days. How it is done: as §1, §2
Experiment [7] concerns Normal human foreskin fibroblasts (HFF). The experiment in a line: Methylene blue growth inhibition assay (Assay 2), HFF. As to conditions: Fibroblast, 72 h, B-Raf wt, Ras wt, Assay 2, 3 days. The experiment is classed as cell-based. How it is done:
as §1, §2

Structures are written as SMILES.

The IC50 is the concentration at which inhibition is half-maximal. Read a high IC50 as weaker potency in that assay. For orientation: Kd means the free concentration of one partner at which half of the binding sites on the other are occupied at equilibrium, for simple one-to-one binding. A lower Kd goes with higher affinity.

Sequence of B-Raf (P15056 whole entry): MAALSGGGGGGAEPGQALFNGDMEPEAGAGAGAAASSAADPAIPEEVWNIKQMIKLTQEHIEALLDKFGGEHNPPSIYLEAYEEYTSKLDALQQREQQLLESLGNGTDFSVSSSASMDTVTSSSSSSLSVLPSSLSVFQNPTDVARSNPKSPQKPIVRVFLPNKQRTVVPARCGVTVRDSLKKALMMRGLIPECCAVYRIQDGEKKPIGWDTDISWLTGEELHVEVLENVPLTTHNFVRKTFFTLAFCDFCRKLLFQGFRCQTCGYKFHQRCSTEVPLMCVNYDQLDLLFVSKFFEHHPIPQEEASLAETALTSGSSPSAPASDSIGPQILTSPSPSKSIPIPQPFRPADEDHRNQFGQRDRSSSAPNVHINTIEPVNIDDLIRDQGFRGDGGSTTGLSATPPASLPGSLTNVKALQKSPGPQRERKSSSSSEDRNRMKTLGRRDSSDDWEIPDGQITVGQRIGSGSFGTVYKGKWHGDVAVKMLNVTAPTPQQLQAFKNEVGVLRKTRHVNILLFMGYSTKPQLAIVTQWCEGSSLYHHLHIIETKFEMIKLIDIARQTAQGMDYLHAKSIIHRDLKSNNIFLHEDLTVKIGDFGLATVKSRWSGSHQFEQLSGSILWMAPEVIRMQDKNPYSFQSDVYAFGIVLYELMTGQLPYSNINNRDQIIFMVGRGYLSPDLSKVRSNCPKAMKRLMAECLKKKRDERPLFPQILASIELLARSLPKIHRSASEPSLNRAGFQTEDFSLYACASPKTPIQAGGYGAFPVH

For `O=C(c1cc(-c2ccc3c(c2)CCC3=NO)c(-c2ccncc2)o1)N1CCC(N2CCCC2)CC1` [Example 20, 5-{2-Pyridin-4-yl-5-[1-(4-pyrrolidin-1-yl-piperidin-1-yl)-methanoyl}-furan-3-yl}-indan-1-one oxime], the IC50 in experiment [1] is 320 nM; in experiment [2], 460 nM; in experiment [3], 1900 nM; in experiment [5], 800 nM; in experiment [6] it was 310 nM; in experiment [7], > 30000 nM. In experiment [4], this compound showed a Kd of 0.4 nM.
